Reference: ChEMBL document CHEMBL1201862, “PubChem BioAssay data set” (2004)
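Results reflect a 48-hour exposure of cells in 96-well plates to compound at five concentrations. GI50 marks 50% less growth.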 Activity calls are given as the source filed them. Cut-off read from the data, not from the text of the source: active = GI50 up to about 1.1 µM and inactive = higher.

What was measured:
Assay in all cases: NCI-60 cell line screen, 48 h
UACC-62 = tested on: UACC-62
NCI-H23 = tested on: NCI-H23
NCI-H226 = tested on: NCI-H226
K562 = tested on: K562
SW-620 = tested on: SW-620
MCF7 = tested on: MCF7
786-0 = tested on: 786-0
NCI-H522 = tested on: NCI-H522
MDA-N = tested on: MDA-N
MDA-MB-231 = tested on: MDA-MB-231
SR = tested on: SR
EKVX = tested on: EKVX
A549 = tested on: A549
RPMI-8226 = tested on: RPMI-8226
IGROV-1 = tested on: IGROV-1
HOP-92 = tested on: HOP-92
Malme-3M = tested on: Malme-3M
SK-OV-3 = tested on: SK-OV-3

Measured: GI50

O=C1C=CC2(C=C1)CCC(=O)O2
inactive: UACC-62 16.5 µM | NCI-H23 14.2 µM | NCI-H226 19.2 µM | K562 10.7 µM | SW-620 11.6 µM | MCF7 13.4 µM | 786-0 15 µM | NCI-H522 2.34 µM | MDA-N 27.9 µM | MDA-MB-231 10.1 µM | SR 6.38 µM | EKVX 17.9 µM | A549 20.6 µM | RPMI-8226 5.89 µM | IGROV-1 10.8 µM | HOP-92 11.1 µM | Malme-3M 5.58 µM

Cc1ccc(S(=O)(=O)Nn2c(S)c(C#N)c(-c3ccc([N+](=O)[O-])cc3)c(C#N)c2=O)cc1
inactive: UACC-62 25.8 µM | NCI-H226 40.6 µM | K562 21.2 µM | SW-620 19.2 µM | MCF7 25.6 µM | 786-0 20 µM | NCI-H522 15.7 µM | SK-OV-3 82 µM | MDA-N 26.1 µM | MDA-MB-231 17.7 µM | EKVX 32 µM | A549 47.9 µM | RPMI-8226 16.4 µM | IGROV-1 19.4 µM | HOP-92 32.1 µM | Malme-3M 61.5 µM

O=C(/C=C1/Nc2ccc([N+](=O)[O-])cc2N/C1=C/C(=O)c1ccc(Cl)cc1)c1ccc(Cl)cc1
inactive: UACC-62 49.4 µM | NCI-H23 11.6 µM | NCI-H226 > 100 µM | K562 31.9 µM | MCF7 49.5 µM | 786-0 > 100 µM | NCI-H522 4.41 µM | MDA-N > 100 µM | MDA-MB-231 > 100 µM | SR > 100 µM | EKVX > 100 µM | A549 > 100 µM | IGROV-1 > 100 µM | Malme-3M > 100 µM

C=CCOc1cc(NC(=S)c2ccoc2C)ccc1OC
inactive: UACC-62 > 100 µM | NCI-H23 > 100 µM | NCI-H226 > 100 µM | K562 > 100 µM | SW-620 > 100 µM | MCF7 > 100 µM | 786-0 > 100 µM | NCI-H522 > 100 µM | SK-OV-3 > 100 µM | MDA-N > 100 µM | MDA-MB-231 > 100 µM | EKVX > 100 µM | A549 > 100 µM | RPMI-8226 > 100 µM | IGROV-1 > 100 µM | HOP-92 27.9 µM | Malme-3M > 100 µM

O=C1c2ccccc2C(=O)N1n1c(Cc2ccc(Cl)cc2)n[nH]c1=O
inactive: UACC-62 > 100 µM | NCI-H23 > 100 µM | NCI-H226 > 100 µM | K562 > 100 µM | SW-620 > 100 µM | MCF7 > 100 µM | 786-0 > 100 µM | MDA-N > 100 µM | MDA-MB-231 > 100 µM | SR > 100 µM | EKVX > 100 µM | A549 > 100 µM | IGROV-1 > 100 µM | HOP-92 > 100 µM | Malme-3M > 100 µM

Cc1cccc(NS(=O)(=O)c2ccc3c(c2)OCCOCCOCCOCCO3)c1
inactive: UACC-62 > 100 µM | NCI-H23 > 100 µM | NCI-H226 > 100 µM | K562 > 100 µM | SW-620 > 100 µM | MCF7 > 100 µM | 786-0 > 100 µM | NCI-H522 16.1 µM | SK-OV-3 > 100 µM | MDA-N > 100 µM | MDA-MB-231 > 100 µM | SR 53 µM | EKVX > 100 µM | A549 > 100 µM | RPMI-8226 > 100 µM | IGROV-1 > 100 µM | Malme-3M > 100 µM

CCCNC(=O)N(C)C(=O)N1N=C(c2ccccc2)C1c1ccccc1 (configuration not stated)
inactive: UACC-62 59.3 µM | NCI-H23 > 100 µM | NCI-H226 > 100 µM | K562 49 µM | SW-620 > 100 µM | MCF7 > 100 µM | 786-0 > 100 µM | NCI-H522 62.4 µM | SK-OV-3 > 100 µM | MDA-N 95.1 µM | MDA-MB-231 > 100 µM | EKVX > 100 µM | A549 78.9 µM | RPMI-8226 38.2 µM | IGROV-1 78.7 µM | HOP-92 62.4 µM | Malme-3M 39.6 µM

CCOC(=O)c1[nH]c(Br)c(-c2ccc(OC)c(OC)c2)c1Br
inactive: EKVX 4.12 µM | HOP-92 7.46 µM | Malme-3M 1.71 µM
active: UACC-62 0.0418 µM | NCI-H23 0.0891 µM | NCI-H226 0.0381 µM | K562 0.0121 µM | SW-620 0.0302 µM | MCF7 0.245 µM | 786-0 0.0334 µM | NCI-H522 0.00991 µM | MDA-N 0.00567 µM | MDA-MB-231 0.321 µM | SR 0.0214 µM | A549 0.287 µM | RPMI-8226 0.01 µM | IGROV-1 0.0552 µM

O=C(O)C/N=C(\C(=N\CC(=O)O)c1ccccc1)c1ccccc1
inactive: UACC-62 > 100 µM | NCI-H23 > 100 µM | NCI-H226 > 100 µM | K562 > 100 µM | SW-620 > 100 µM | MCF7 > 100 µM | 786-0 > 100 µM | NCI-H522 > 100 µM | SK-OV-3 > 100 µM | MDA-N > 100 µM | MDA-MB-231 > 100 µM | SR > 100 µM | EKVX > 100 µM | A549 > 100 µM | RPMI-8226 85.7 µM | Malme-3M > 100 µM

COc1cccc(OC)c1NC(=O)C(=O)Nn1c(NNC(=O)c2ccncc2)nc2ccccc2c1=O
inactive: UACC-62 > 100 µM | NCI-H23 > 100 µM | NCI-H226 > 100 µM | K562 > 100 µM | SW-620 > 100 µM | MCF7 > 100 µM | 786-0 > 100 µM | NCI-H522 > 100 µM | SK-OV-3 > 100 µM | MDA-N > 100 µM | MDA-MB-231 > 100 µM | EKVX 84.9 µM | A549 > 100 µM | RPMI-8226 > 100 µM | IGROV-1 > 100 µM | HOP-92 > 100 µM | Malme-3M > 100 µM

COc1ccc(Cl)cc1NC(=O)O/N=C(\Cl)C(C)C
inactive: UACC-62 12.9 µM | NCI-H23 17.6 µM | NCI-H226 12.7 µM | K562 1.98 µM | SW-620 2.7 µM | MCF7 6.71 µM | 786-0 13 µM | SK-OV-3 18.7 µM | MDA-N 11.4 µM | MDA-MB-231 6.22 µM | EKVX 3.74 µM | A549 18.8 µM | RPMI-8226 2.06 µM | IGROV-1 12.2 µM | HOP-92 1.97 µM | Malme-3M 1.94 µM
active: NCI-H522 0.752 µM

CC(=O)NC1C(OC(C)C(=O)NC(C)C(=O)NC(CCC(=O)NCCCCCNc2ccc([N+](=O)[O-])c3[nH]c4ccccc4c(=O)c23)C(N)=O)C(O)C(CO)OC1(C)OCc1ccccc1 (configuration not stated)
inactive: UACC-62 > 100 µM | NCI-H23 > 100 µM | NCI-H226 89.9 µM | K562 45.3 µM | SW-620 67.9 µM | MCF7 73.3 µM | 786-0 38.7 µM | NCI-H522 > 100 µM | SK-OV-3 > 100 µM | MDA-N > 100 µM | MDA-MB-231 46.9 µM | SR 14 µM | EKVX > 100 µM | A549 50.8 µM | RPMI-8226 28.1 µM | IGROV-1 64.1 µM | Malme-3M > 100 µM

CC(C)(C)OC(=O)NC(CCCCNC(=O)OCc1ccccc1)C(=O)NC(CCCCNC(=O)OCc1ccccc1)C(=O)ON1C(=O)CCC1=O (configuration not stated)
inactive: UACC-62 > 100 µM | NCI-H23 > 100 µM | NCI-H226 > 100 µM | K562 > 100 µM | SW-620 > 100 µM | MCF7 > 100 µM | 786-0 > 100 µM | MDA-N > 100 µM | MDA-MB-231 > 100 µM | SR > 100 µM | EKVX > 100 µM | A549 > 100 µM | RPMI-8226 > 100 µM | IGROV-1 > 100 µM | HOP-92 > 100 µM | Malme-3M > 100 µM

CC(C)[C@@H]1CC[C@@H](C)C[C@H]1OC(=O)c1c2n(c3ccccc13)C[C@H]1OC(C)(C)O[C@@H]21
inactive: UACC-62 18 µM | NCI-H23 5.77 µM | NCI-H226 22.3 µM | K562 4.53 µM | SW-620 16.6 µM | MCF7 14.1 µM | 786-0 16.5 µM | SK-OV-3 21.3 µM | MDA-N 19.7 µM | MDA-MB-231 23 µM | SR 3.23 µM | EKVX 6.81 µM | A549 18.9 µM | RPMI-8226 3.61 µM | IGROV-1 13 µM | Malme-3M 7.64 µM

CCOC(=O)C1=C(N2CCCC2)C(=O)C(C(=O)OCC)C1 (configuration not stated)
inactive: NCI-H23 > 100 µM | NCI-H226 > 100 µM | K562 > 100 µM | SW-620 > 100 µM | MCF7 > 100 µM | 786-0 > 100 µM | NCI-H522 > 100 µM | SK-OV-3 > 100 µM | MDA-N > 100 µM | MDA-MB-231 > 100 µM | EKVX > 100 µM | A549 > 100 µM | RPMI-8226 > 100 µM | IGROV-1 > 100 µM | HOP-92 > 100 µM | Malme-3M > 100 µM

Cn1c(=O)nc2n(CCO)ccnc-2c1=O
inactive: UACC-62 > 100 µM | NCI-H23 > 100 µM | NCI-H226 > 100 µM | K562 > 100 µM | SW-620 > 100 µM | MCF7 > 100 µM | 786-0 > 100 µM | NCI-H522 > 100 µM | MDA-N > 100 µM | MDA-MB-231 > 100 µM | SR > 100 µM | EKVX > 100 µM | A549 > 100 µM | RPMI-8226 > 100 µM | IGROV-1 > 100 µM | HOP-92 > 100 µM | Malme-3M > 100 µM
